Molecules are shown by their SMILES.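 Five compound concentrations were applied to cells in 96-well plates for 48 hours; endpoints were derived by simple linear interpolation of the resulting dose-response curve. The concentration for 50% growth inhibition is given as GI50. TGI: total growth inhibition.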 *1 amine or outer side, *2 acyl side, *3 side chain or, on linkers, in order; H or OH if unused. Where a SMILES comes first, the peptide text is derived from it. Bridges are numbered along the chain shown (N, C = ends). Roman numbers before positions name the chains, in order. [ ]: non-standard residue; d: D form. ξ: configuration not given here. X54 = N=C(N)NCCC[C@@H](NC(=N)CCCCCCC(=N)N[C@H](CCCNC(=N)N)C(=O)[*:2])C(=O)[*:1]; dIgl = N[C@@H](C(=O)O)C1Cc2ccccc2C1; Hyp = O=C(O)[C@@H]1C[C@@H](O)CN1; ξIgl = NC(C(=O)O)C1Cc2ccccc2C1; ξOic = O=C(O)C1CC2CCCCC2N1; ξR = N=C(N)NCCCC(N)C(=O)O; ξP = O=C(O)C1CCCN1; ξS = NC(CO)C(=O)O

Among the test systems are CAKI-1 renal; CCRF-CEM leukemia; HL-60(TB) leukemia; HOP-62 NSCLC; NCI-H226 lung; RPMI-8226 leukemia; SK-MEL-5 melanoma; T-47D breast; HCC-2998 colon; MOLT-4 leukemia.
Common to all, as to test: NCI-60 cell line screen, 48 h

Regarding `CC(C)C(Nc1ncnc2nc[nH]c12)C(=O)O` (stereo unspecified), the TGI with CAKI-1 renal, in the test on CCRF-CEM leukemia, in the test with HL-60(TB) leukemia, in the test on HOP-62 NSCLC, with NCI-H226 lung and with RPMI-8226 leukemia was more than 100 µM throughout. In addition, the TGI in the test on SK-MEL-5 melanoma and in the test with T-47D breast was more than 100 µM throughout.
Consider `O=c1[nH]c2ccccc2c(O)c1Cc1ccccc1`, for which the TGI with CAKI-1 renal, with CCRF-CEM leukemia, in the test with HCC-2998 colon, in the test with HL-60(TB) leukemia, in the test on HOP-62 NSCLC and with MOLT-4 leukemia was more than 100 µM in each case. Also, the TGI with NCI-H226 lung, with RPMI-8226 leukemia and with SK-MEL-5 melanoma was more than 100 µM in each case.
As to `CCC(C)(C)c1cc(O)c(C(C)(C)CC)cc1O`, the GI50 in the test with CAKI-1 renal was 2.44 µM; with HCC-2998 colon it was 2.3 µM; in the test on NCI-H226 lung, 3.63 µM; in the test with RPMI-8226 leukemia it was 2.41 µM; in the test with SK-MEL-5 melanoma it was 2.2 µM; in the test on T-47D breast, 4.56 µM. The TGI in the test on CAKI-1 renal is 7.74 µM; in the test on HCC-2998 colon, 5.36 µM; with NCI-H226 lung it was 15.2 µM; in the test with RPMI-8226 leukemia, 9.09 µM; with SK-MEL-5 melanoma, 5.26 µM; in the test on T-47D breast, 19.5 µM.
As for `N=C(N)NCCCC(NC(=O)C1CC2CCCCC2N1C(=O)[C@H](NC(=O)C(CO)NC(=O)C(NC(=O)CNC(=O)[C@@H]1C[C@@H](O)CN1C(=O)C1CCCN1C(=O)C(CCCNC(=N)N)NC(=O)[C@@H](CCCNC(=N)N)NC(=N)CCCCCCC(=N)N[C@H](CCCNC(=N)N)C(=O)NC(CCCNC(=N)N)C(=O)N1CCCC1C(=O)N1C[C@H](O)C[C@H]1C(=O)NCC(=O)NC(C(=O)NC(CO)C(=O)N[C@@H](C(=O)N1C(C(=O)NC(CCCNC(=N)N)C(=O)O)CC2CCCCC21)C1Cc2ccccc2C1)C1Cc2ccccc2C1)C1Cc2ccccc2C1)C1Cc2ccccc2C1)C(=O)O` (stereo partly specified) (I: [ξR][ξP][Hyp]G[ξIgl][ξS][dIgl][ξOic][ξR]-OH / II: [ξR][ξP][Hyp]G[ξIgl][ξS][dIgl][ξOic][ξR]-OH; linker I:N-II:N via X54), the TGI came to 3.71 µM with CAKI-1 renal; 8.81 µM in the test with CCRF-CEM leukemia; 0.409 µM in the test on HL-60(TB) leukemia; 5.64 µM in the test with HOP-62 NSCLC; 2.89 µM in the test with MOLT-4 leukemia; 4.48 µM in the test on RPMI-8226 leukemia. Also, the TGI turned out to be 3.62 µM in the test with SK-MEL-5 melanoma and 4.42 µM in the test with T-47D breast.
As to `COC(C/C(=C/CO[Si](C(C)C)(C(C)C)C(C)C)C(=O)N(C(=O)OC(C)(C)C)c1ccccc1I)OC`, the TGI in the test on CAKI-1 renal, in the test with HCC-2998 colon, in the test with HOP-62 NSCLC, in the test on MOLT-4 leukemia, in the test with NCI-H226 lung and with RPMI-8226 leukemia was more than 100 µM in each case. Moreover, the TGI in the test on SK-MEL-5 melanoma and in the test with T-47D breast was more than 100 µM throughout.
On to `Cc1cc2c(c(C(=O)NCC(=O)N[C@@H](C)C(=O)OCc3ccccc3)c1)Oc1c(cc(C)cc1C(=O)NCC(=O)N[C@@H](C)C(=O)OCc1ccccc1)S2`, for which the TGI in the test with CAKI-1 renal, with CCRF-CEM leukemia, with HCC-2998 colon, in the test with HOP-62 NSCLC, with MOLT-4 leukemia and in the test with NCI-H226 lung was more than 100 µM in each case. The TGI in the test on RPMI-8226 leukemia is more than 100 µM; in the test on SK-MEL-5 melanoma it was more than 100 µM; in the test with T-47D breast it was 6.28 µM.
As to `COc1ccccc1NC(=S)N=Nc1c(O)[nH]c2ccccc12`, the TGI in the test with CAKI-1 renal, in the test with CCRF-CEM leukemia, in the test with HCC-2998 colon, in the test with HOP-62 NSCLC, with MOLT-4 leukemia and in the test on NCI-H226 lung was more than 100 µM in each case. The TGI in the test with RPMI-8226 leukemia, with SK-MEL-5 melanoma and in the test with T-47D breast was more than 100 µM in each case.
As to `CN(c1ccccc1)S(=O)(=O)c1ccc([N+](=O)[O-])cc1`, the TGI with CAKI-1 renal, in the test on HL-60(TB) leukemia, with HOP-62 NSCLC, with NCI-H226 lung, in the test with RPMI-8226 leukemia and in the test with T-47D breast was more than 100 µM throughout.
For `O[C@@H]1C[C@H](Cl)c2c(Cl)sc(Cl)c21`, the TGI in the test with CAKI-1 renal, with CCRF-CEM leukemia, in the test with HCC-2998 colon, in the test on HOP-62 NSCLC, in the test on MOLT-4 leukemia and in the test with RPMI-8226 leukemia was more than 100 µM throughout. Moreover, the TGI in the test on SK-MEL-5 melanoma and with T-47D breast was more than 100 µM throughout.
Consider `CCOC(=O)c1[nH]cc(C)c1-c1cccn1-c1ccc(Cl)cc1[N+](=O)[O-]`, for which the TGI in the test with CAKI-1 renal was more than 100 µM; in the test on CCRF-CEM leukemia, 64.3 µM; in the test on HCC-2998 colon, 66.3 µM; with HOP-62 NSCLC, 44.9 µM; with MOLT-4 leukemia it was 46.4 µM; in the test on NCI-H226 lung, 46.2 µM. The results for the TGI in the test on SK-MEL-5 melanoma and with T-47D breast were 28.1 µM and more than 100 µM, respectively.
As for `Cc1nn(C(=O)c2ccccc2O)c2c1C(c1ccc(O)cc1O)SC(N)=N2` (stereo unspecified), the TGI in the test on CAKI-1 renal is more than 10 µM; in the test with CCRF-CEM leukemia, more than 10 µM; in the test on HL-60(TB) leukemia it was more than 10 µM; in the test on HOP-62 NSCLC, more than 10 µM; in the test with MOLT-4 leukemia, more than 10 µM; with NCI-H226 lung, 3.82 µM. Also, the TGI with RPMI-8226 leukemia and in the test on SK-MEL-5 melanoma was more than 10 µM in each case.
As for `COc1ccc2c(c1)Oc1cc(O)ccc1[C@H]2c1ccccc1C(=O)NC(C)c1ccccc1` (stereo partly specified), the TGI amounted to 33.7 µM in the test with CAKI-1 renal; 72.7 µM in the test with CCRF-CEM leukemia; 30.3 µM in the test with HCC-2998 colon; 44.1 µM with HL-60(TB) leukemia; 44.6 µM with HOP-62 NSCLC; 64.8 µM in the test with MOLT-4 leukemia. In addition, the TGI is 38.8 µM in the test on NCI-H226 lung, 23.6 µM in the test with RPMI-8226 leukemia and 29.2 µM in the test with SK-MEL-5 melanoma.
Turning to `O=C1c2ccccc2C(=O)N1n1c(Cc2ccc(Cl)cc2)n[nH]c1=O`, the TGI with CAKI-1 renal, with CCRF-CEM leukemia, in the test with HCC-2998 colon, in the test with HOP-62 NSCLC, in the test on MOLT-4 leukemia and in the test with NCI-H226 lung was more than 100 µM throughout. Moreover, the TGI with SK-MEL-5 melanoma and in the test on T-47D breast was more than 100 µM in each case.
As for `CC(C)OP(=S)(NC(=S)c1ccccc1)OC(C)C`, the TGI with CAKI-1 renal, in the test with CCRF-CEM leukemia, in the test with HCC-2998 colon, with MOLT-4 leukemia, in the test with NCI-H226 lung and in the test on SK-MEL-5 melanoma was more than 100 µM in each case.
